Source: patent US9845326B2, “Substituted 3,4-dihydropyrrolo[1,2-A]pyrazines as beta-secretase (BACE) inhibitors” (priority 2011, dated 2017)

Assays:
[1] = system: Aβtotal; test: Cellular αlisa assay in SKNBE2 cells, Aβtotal; assay type: cell-based, human; conditions: SKNBE2 cells expressing hAPP695, 18 hours incubation; for IC50: Homo sapiens, SKNBE2, 18 h, read-out: Cellular αlisa assay in SKNBE2 cells Aβtotal pIC50 (converted)
Description: (§1) In two αlisa assays the levels of Aβtotal and Aβ42 produced and secreted into the medium of human neuroblastoma SKNBE2 cells are quantified. The assay is based on the human neuroblastoma SKNBE2 expressing the wild type Amyloid Precursor Protein (hAPP695). The compounds are diluted and added to these cells, incubated for 18 hours and then measurements of Aβ42 and Aβtotal are taken. Aβtotal and Aβ42 are measured by sandwich αlisa. αlisa is a sandwich assay using biotinylated antibody AbN/25 attached to streptavidin coated beads and antibody Ab4G8 or cAb42/26 conjugated acceptor beads for the detection of Aβtotal and Aβ42 respectively. In the presence of Aβtotal or Aβ42, the beads come into close proximity. The excitation of the Donor beads provokes the release of singlet oxygen molecules that triggers a cascade of energy transfer in the Acceptor beads, resulting in light emission. Light emission is measured after 1 hour incubation (excitation at […] and emission at 615 nm).
(§2) From this an […] value (inhibitory concentration causing 50% inhibition of activity) can be obtained.

[2] = system: Aβ42; test: Cellular αlisa assay in SKNBE2 cells, Aβ42; assay type: cell-based, human; conditions: SKNBE2 cells expressing hAPP695, 18 hours incubation; for IC50: Homo sapiens, SKNBE2, 18 h, read-out: Cellular αlisa assay in SKNBE2 cells Aβ42 pIC50 (converted)
Description: as §1, §2

[3] = target: BACE1 (Homo sapiens, UniProt P56817); test: Biochemical FRET based assay; conditions: Biochemical FRET based assay pIC50, recombinant BACE1 1 μg/ml, 120 min, room temperature, pH 5.0
Chain of BACE1 (P56817 46-501): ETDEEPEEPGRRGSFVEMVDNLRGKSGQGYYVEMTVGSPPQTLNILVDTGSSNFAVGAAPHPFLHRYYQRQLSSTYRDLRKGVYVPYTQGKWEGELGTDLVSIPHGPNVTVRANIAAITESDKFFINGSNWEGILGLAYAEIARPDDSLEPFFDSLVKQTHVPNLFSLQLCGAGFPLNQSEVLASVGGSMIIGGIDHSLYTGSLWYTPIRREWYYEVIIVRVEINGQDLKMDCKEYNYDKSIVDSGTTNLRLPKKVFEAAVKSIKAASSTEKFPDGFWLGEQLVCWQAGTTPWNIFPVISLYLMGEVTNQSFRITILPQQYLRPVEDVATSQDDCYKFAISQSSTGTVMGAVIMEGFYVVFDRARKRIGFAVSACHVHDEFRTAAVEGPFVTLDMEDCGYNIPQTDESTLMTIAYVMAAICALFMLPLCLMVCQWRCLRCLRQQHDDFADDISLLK
Text: This assay is a Fluorescence Resonance Energy Transfer Assay (FRET) based assay. The substrate for this assay is an APP derived 13 amino acids peptide that contains the ‘Swedish’ Lys-Met/Asn-Leu mutation of the amyloid precursor protein (APP) β-secretase cleavage site. This substrate also contains two fluorophores: (7-methoxy-coumarin-4-yl) acetic acid (Mca) is a fluorescent donor with excitation wavelength at 320 nm and emission at 405 nm and 2,4-Dinitrophenyl (Dnp) is a proprietary quencher acceptor. […] Upon cleavage by BACE1, the fluorophore Mca is separated from the quenching group Dnp, restoring the full fluorescence yield of the donor. The increase in fluorescence is linearly related to the rate of proteolysis (Koike H et al. J. Biochem. 1999, 126, 235-242).
Briefly in a 384-well format recombinant BACE1 protein in a final concentration of 1 μg/ml is incubated for 120 min at room temperature with 10 μm substrate in incubation buffer (40 mM Citrate buffer pH 5.0, 0.04% PEG, 4% DMSO) in the absence or presence of compound. Next the amount of proteolysis is directly measured by fluorescence measurement at T=0 and T=120 (excitation at 320 nm and emission at 405 nm). Results are expressed in RFU, as difference between T120 and T0
From this an IC50 value (inhibitory concentration causing 50% inhibition of activity) can be obtained.

| SMILES | IC50 [1] [µM] | IC50 [2] [µM] | IC50 [3] [µM] | Cellular αlisa assay in SKNBE2 cells Aβtotal pIC50 [1] | Cellular αlisa assay in SKNBE2 cells Aβ42 pIC50 [2] |
| --- | --- | --- | --- | --- | --- |
| CC1(c2cccc(-c3cncnc3)c2)Cn2cccc2C(N)=N1 (racemic) [Compound 1, rac-3-methyl-3-(3-pyrimidin-5-yl-phenyl)-3,4-dihydro-pyrrolo[1,2-a]pyrazin-1-ylamine] | 3.89 | 3.98 | 12 | – | – |
| CC1(c2cccc(-c3cc(Cl)cc(Cl)c3)c2)Cn2cccc2C(N)=N1 (racemic) [Compound 2, rac-3-(3′,5′-dichloro-biphenyl-3-yl)-3-methyl-3,4-dihydro-pyrrolo[1,2-a]pyrazin-1-ylamine] | 4.27 | 4.47 | 3.72 | – | – |
| CC1(c2cccc(NC(=O)c3ccc(Cl)cn3)c2)Cn2cccc2C(N)=N1 (racemic) [Compound 3, rac-5-chloro-pyridine-2-carboxylic acid[3-(1-amino-3-methyl-3,4-dihydro-pyrrolo[1,2-a]pyrazin-3-ye-phenyl]-amide] | 0.0955 | 0.1 | 0.135 | – | – |
| COc1cnc(C(=O)Nc2cccc(C3(C)Cn4cccc4C(N)=N3)c2)cn1 (racemic) [Compound 4, rac-5-methoxy-pyrazine-2-carboxylic acid [3-(1-amino-3-methyl-3,4-dihydro-pyrrolo[1,2-a]pyrazin-3-ye-phenyl]-amide] | 0.0933 | 0.11 | 0.234 | – | – |
| COc1cnc(C(=O)Nc2ccc(F)c(C3(C(F)F)Cn4cccc4C(N)=N3)c2)cn1 (racemic) [Compound 11] | 0.00955 | 0.011 | 0.107 | – | – |
| COc1cnc(C(=O)Nc2ccc(F)c(C3(C(F)F)Cn4cccc4C(N)=N3)c2)cn1 (single isomer, unassigned) [Compound 12] | – | – | 0.0372 | 7.9 | 7.85 |
| COc1cnc(C(=O)Nc2ccc(F)c(C3(C(F)F)Cn4cccc4C(N)=N3)c2)cn1 (single isomer, unassigned) [Compound 13] | – | – | 18.2 | 5.62 | 5.63 |
| COCC1(c2cc(NC(=O)c3ccn(C(F)F)n3)ccc2F)Cn2cc(C(F)(F)F)cc2C(N)=N1 (single isomer, unassigned) [Compound 31] | – | – | > 50.1 | <5 | <5 |
| COCC1(c2cc(NC(=O)c3ccn(C(F)F)n3)ccc2F)Cn2cc(C(F)(F)F)cc2C(N)=N1 (single isomer, unassigned) [Compound 32] | – | – | 1.74 | 6.53 | 6.54 |
| C[C@@]1(c2cc(NC(=O)c3ccc(Cl)cn3)ccc2F)Cn2cccc2C(N)=N1 [Compound 5, (R)-5-chloro-pyridine-2-carboxylic acid [3-(1-amino-3-methyl-3,4-dihydro-pyrrolo[1,2-a]pyrazin-3-yl)-4-fluoro-phenyl]-amide] | 0.00282 | 0.00295 | 0.0372 | – | – |
| COc1cnc(C(=O)Nc2ccc(F)c([C@]3(C)Cn4cc(F)cc4C(N)=N3)c2)cn1 [Compound 8, (R)-5-methoxy-pyrazine-2-carboxylic acid [3-(1-amino-7-fluoro-3-methyl-3,4-dihydro-pyrrolo[1,2-a]pyrazin-3-yl)-4-fluoro-phenyl]-amide] | 0.00204 | 0.00219 | 0.0331 | – | – |
| C[C@@]1(c2cc(NC(=O)c3ccc(C#N)cn3)ccc2F)Cn2cc(C(F)(F)F)cc2C(N)=N1 [Compound 9] | 0.0107 | 0.012 | 0.0339 | – | – |
| C[C@@]1(c2cc(NC(=O)c3ccn(C(F)F)n3)ccc2F)Cn2cc(C(F)(F)F)cc2C(N)=N1 [Compound 10] | 0.0126 | 0.0135 | 0.0479 | – | – |
| NC1=NC(c2cc(NC(=O)c3ccc(F)cn3)ccc2F)(C(F)F)Cn2cccc21 (stereo not drawn) [Compound 14] | 0.0355 | 0.0372 | 0.174 | – | – |
| C[C@@]1(c2cc(NC(=O)c3ncc(C#N)cc3F)ccc2F)Cn2cc(C(F)(F)F)cc2C(N)=N1 [Compound 15] | 0.00891 | 0.00933 | 0.0363 | – | – |
| Cc1nc(C(=O)Nc2ccc(F)c([C@]3(C)Cn4cc(F)cc4C(N)=N3)c2)co1 [Compound 16] | 0.0195 | 0.0204 | 0.049 | – | – |
| Cc1nc(C(=O)Nc2ccc(F)c([C@]3(C)Cn4cc(F)cc4C(N)=N3)c2)c(C)o1 [Compound 17] | 0.0339 | 0.0324 | 0.0676 | – | – |
| Cc1nc(C(=O)Nc2ccc(F)c([C@]3(C)Cn4cc(F)cc4C(N)=N3)c2)c(C(F)(F)F)o1 [Compound 18] | 0.0309 | 0.0316 | 0.0832 | – | – |
| Cc1nc(C(=O)Nc2ccc(F)c([C@]3(C)Cn4cc(C(F)(F)F)cc4C(N)=N3)c2)c(C)o1 [Compound 19] | 0.0631 | 0.0661 | 0.178 | – | – |
| Cc1nc(C(=O)Nc2ccc(F)c([C@]3(C)Cn4cc(C(F)(F)F)cc4C(N)=N3)c2)co1 [Compound 20] | 0.0234 | 0.024 | 0.102 | – | – |
| Cc1nc(C(=O)Nc2ccc(F)c([C@]3(C)Cn4cc(C(F)(F)F)cc4C(N)=N3)c2)co1 [Compound 21] | – | – | 0.0955 | 7.79 | 7.83 |
| C[C@@]1(c2cc(NC(=O)c3ccsn3)ccc2F)Cn2cc(C(F)(F)F)cc2C(N)=N1 [Compound 22] | 0.0479 | 0.049 | 0.224 | – | – |
| Cc1nc(C(=O)Nc2ccc(F)c([C@]3(C)Cn4cc(C(F)(F)F)cc4C(N)=N3)c2)c(C(F)(F)F)o1 [Compound 23] | 0.0776 | 0.0759 | 0.182 | – | – |
| COCC1(c2cc(NC(=O)c3cnc(OC)cn3)ccc2F)Cn2cc(C(F)(F)F)cc2C(N)=N1 (stereo not drawn) [Compound 24] | – | – | 3.16 | 6.35 | 6.30 |
| COCC1(c2cc(NC(=O)c3ccc(F)cn3)ccc2F)Cn2cc(C(F)(F)F)cc2C(N)=N1 (stereo not drawn) [Compound 25] | – | – | 5.01 | 6.07 | 6.04 |
| COCC1(c2cc(NC(=O)c3ccn(C(F)F)n3)ccc2F)Cn2cc(C(F)(F)F)cc2C(N)=N1 (stereo not drawn) [Compound 26] | 0.537 | 0.501 | 2.88 | – | – |
| COCC1(c2cc(NC(=O)c3cnc(OC)cn3)ccc2F)Cn2cc(C(F)(F)F)cc2C(N)=N1 (stereo not drawn) [Compound 27] | – | – | > 50.1 | <5 | <5 |
| COCC1(c2cc(NC(=O)c3cnc(OC)cn3)ccc2F)Cn2cc(C(F)(F)F)cc2C(N)=N1 (stereo not drawn) [Compound 28] | – | – | 1.91 | 6.52 | 6.53 |
| COCC1(c2cc(NC(=O)c3ccc(F)cn3)ccc2F)Cn2cc(C(F)(F)F)cc2C(N)=N1 (stereo not drawn) [Compound 29] | – | – | 2.04 | 6.33 | 6.32 |
| COCC1(c2cc(NC(=O)c3ccc(F)cn3)ccc2F)Cn2cc(C(F)(F)F)cc2C(N)=N1 (stereo not drawn) [Compound 30] | – | – | 34.7 | <5 | <5 |
